Reference: patent US9113629B2, “4-amino-6-(4-substituted-phenyl)-picolinates and 6-amino-2-(4-substituted-phenyl)-pyrimidine-4-carboxylates and their use as herbicides” (DOW AGROSCIENCES LLC, priority 2013, dated 2015)
Like-named read-outs stand apart in the source and are kept apart here.

Columns and labels:
[1] = tested on: Key Broadleaf Weed and Crop Species; assay: Post-emergent Test II herbicidal activity (Table 5); assay type: in vivo; settings: post-emergence, 336 h, post-emergent, 14 days after application; for pest or weed control at 70 g/ha: application rate 70 g ai/ha; for pest or weed control at 140 g/ha: application rate 140 g ai/ha
How it was run: (§1)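 Scoring: visual, 0–100% injury at 14 d versus untreated. Treatment: overhead track spray, 187 L/ha, onto plants at the first–second true leaf stage. Growth: greenhouse, ~15 h light, 23–29 °C day, 22–28 °C night.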

[2] = tested on: Key Grass and Sedge Weeds as well as Grass Crops; assay: Post-emergent Test II herbicidal activity (Table 6); assay type: in vivo; settings: post-emergence, 336 h; for pest or weed control at 70 g/ha: application rate 70 g ai/ha; for pest or weed control at 140 g/ha: application rate 140 g ai/ha
How it was run: as §1

[3] = ABUTH: velvetleaf (Abutilon theophrasti), read-out: Visual Growth Reduction (%) 14 Days After Application, ABUTH
[4] = AMARE: redroot pigweed (Amaranthus retroflexus), read-out: Visual Growth Reduction (%) 14 Days After Application, AMARE
[5] = BRSNN: oilseed-rape, canola (Brassica napus), read-out: Visual Growth Reduction (%) 14 Days After Application, BRSNN
[6] = CHEAL: lambsquarters (Chenopodium album), read-out: Visual Growth Reduction (%) 14 Days After Application, CHEAL
[7] = EPHHL: wild poinsettia (Euphorbia heterophylla), read-out: Visual Growth Reduction (%) 14 Days After Application, EPHHL
[8] = HELAN: sunflower (Helianthus annuus), read-out: Visual Growth Reduction (%) 14 Days After Application, HELAN
[9] = VIOTR: wild pansy (Viola tricolor), read-out: Visual Growth Reduction (%) 14 Days After Application, VIOTR
[10] = CYPES: yellow nutsedge (Cyperus esculentus), read-out: Visual Growth Reduction (%) 14 Days After Application, CYPES
[11] = DIGSA: crabgrass (Digitaria sanguinalis), read-out: Visual Growth Reduction (%) 14 Days After Application, DIGSA
[12] = ECHCG: barnyardgrass (Echinochloa crus-galli), read-out: Visual Growth Reduction (%) 14 Days After Application, ECHCG
[13] = ORYSA: rice (Oryza sativa), read-out: Visual Growth Reduction (%) 14 Days After Application, ORYSA
[14] = SETFA: giant foxtail (Setaria faberi), read-out: Visual Growth Reduction (%) 14 Days After Application, SETFA
[15] = SORVU: grain sorghum (Sorghum vulgare), read-out: Visual Growth Reduction (%) 14 Days After Application, SORVU
[16] = TRZSS (wheat, Triticum aestivum), read-out: Visual Growth Reduction (%) 14 Days After Application, TRZSS
[17] = ZEAMX: maize, corn (Zea mays), read-out: Visual Growth Reduction (%) 14 Days After Application, ZEAMX

Nc1cc(-c2cc(F)c(OC(F)F)cc2F)nc(C(=O)O)c1Cl [Compound 187]
30 to 44%: pest or weed control at 140 g/ha [2, 10]
60 to 74%: pest or weed control at 140 g/ha [1, 3] | pest or weed control at 140 g/ha [1, 8] | pest or weed control at 70 g/ha [2, 12] | pest or weed control at 140 g/ha [2, 12] | pest or weed control at 70 g/ha [2, 14]
167.4 to 170.2 °C: melting point
95 to 100%: pest or weed control at 70 g/ha [1, 4] | pest or weed control at 140 g/ha [1, 4] | pest or weed control at 140 g/ha [1, 6] | pest or weed control at 70 g/ha [1, 7] | pest or weed control at 140 g/ha [1, 7]
0 to 29%: pest or weed control at 70 g/ha [1, 9] | pest or weed control at 140 g/ha [1, 9] | pest or weed control at 70 g/ha [2, 10] | pest or weed control at 70 g/ha [2, 11] | pest or weed control at 140 g/ha [2, 11] | pest or weed control at 70 g/ha [2, 13] | pest or weed control at 140 g/ha [2, 13] | pest or weed control at 70 g/ha [2, 15] | pest or weed control at 140 g/ha [2, 15] | pest or weed control at 70 g/ha [2, 16] | pest or weed control at 70 g/ha [2, 17] | pest or weed control at 140 g/ha [2, 17]
45 to 59%: pest or weed control at 70 g/ha [1, 3] | pest or weed control at 70 g/ha [1, 8] | pest or weed control at 140 g/ha [2, 16]
75 to 84%: pest or weed control at 70 g/ha [1, 5] | pest or weed control at 140 g/ha [1, 5] | pest or weed control at 70 g/ha [1, 6] | pest or weed control at 140 g/ha [2, 14]
